“Also recorded” adds a separate entry of the source.
Legend:
relapsed/refractory AML = test system: relapsed/refractory AML; set-up: method as in Ossenkoppele et al, 2009; Reid et al, 2009; settings: tosedostat monotherapy, ref Ossenkoppele et al, 2009, Reid et al; cited from earlier work
[1] = test system: advanced solid malignancies; test: Antitumour activity, Response Evaluation Criteria in Solid Tumors; format: in vivo, patients; settings: tosedostat with paclitaxel
Method: Response was evaluated according to Response Evaluation Criteria in Solid Tumors ([Therasse et al, 2000]) after every second cycle.

[2] = Dose-limiting toxicity and maximum tolerated dose of the paclitaxel/tosedostat combination; format: in vivo, patients
Method: The starting dose of CHR-2797 was 90 mg daily, below the MTD.
Toxicity was evaluated according to common toxicity criteria for adverse events (CTCAEv3.0). The MTD was defined as the dose level(s) at which at least two out of six patients developed DLT.

cancer cell lines = test system: cancer cell lines; set-up: method as in Jenkins et al, 2007; Moore et al, 2009; settings: wide range of cancer cell lines in vitro; ref Jenkins et al, 2007; Moore et al, 2009; cited from earlier work
transformed cells = test system: transformed cells; set-up: method as in Krige et al, 2008; settings: in vitro and in vivo experiments; ref Krige et al, 2008; cited from earlier work
[3] = Plasma pharmacokinetics of tosedostat, CHR-79888 and paclitaxel (LC-MS/MS, noncompartmental); settings: for AUC(0-t) / Cmax / Tmax / half-life / Vd/F: human, oral, mean (±s.e.m.); for AUC(0-t): AUC0−t; for half-life: T½; for Vd/F: Vz/F
Method: On day 21, samples were taken until 8 h post-dose; the day 22 predose sample was used as the 24 h sample of day 21. […] Peak plasma concentrations (Cmax), overall drug exposure (AUC), and terminal plasma half-life (t½) were calculated using noncompartmental methods using WinNonlin Professional software (version 4.1, Pharsight Corporation, St Louis, MO, USA). Pharmacokinetics analysis, with reference to possible interactions, was descriptive.

[4] = cited from earlier work
[5] = plasma, 90 mg, cohort 1: CHR-2797 90 mg, paclitaxel 135 mg m^−2, day 21, tosedostat without paclitaxel, plasma
[6] = plasma, 90 mg, cohort 2: CHR-2797 90 mg, paclitaxel 175 mg m^−2, day 21, tosedostat without paclitaxel, plasma
[7] = plasma, 130 mg, cohort 3: CHR-2797 130 mg, paclitaxel 175 mg m^−2, day 21, tosedostat without paclitaxel, plasma
[8] = plasma, 180 mg, cohort 4: CHR-2797 180 mg, paclitaxel 175 mg m^−2, day 21, tosedostat without paclitaxel, plasma
[9] = plasma, cohort 1: CHR-2797 90 mg, paclitaxel 135 mg m^−2, day 22, tosedostat in combination with paclitaxel, plasma
[10] = plasma, cohort 2: CHR-2797 90 mg, paclitaxel 175 mg m^−2, day 22, tosedostat in combination with paclitaxel, plasma
[11] = plasma, cohort 3: CHR-2797 130 mg, paclitaxel 175 mg m^−2, day 22, tosedostat in combination with paclitaxel, plasma
[12] = plasma, cohort 4: CHR-2797 180 mg, paclitaxel 175 mg m^−2, day 22, tosedostat in combination with paclitaxel, plasma

In the case of `CC(C)C[C@@H](C(=O)N[C@H](C(=O)OC1CCCC1)c1ccccc1)[C@H](O)C(=O)NO` [tosedostat], the response rate (relapsed/refractory AML) is given as 31.4%, the “response duration of PR” value ([1]; patient with malignant melanoma) is given as 7.2 months and the “response duration of PR” value ([1]; patient with squamous cell non-small-cell lung cancer) is given as 7.1 months. For the same molecule, the “response duration of PR” value ([1]; patient with squamous-cell carcinoma of the oesophagus) was 1.5 months, the “stable disease lasting >3 months, patients” value [1] was 12 and the “Median (95% CI) duration of s.d.” value ([1]; 12 patients) was 5.6 (3–6.5) months. For the same molecule, the “partial response, patients” value ([1]; 21 assessable patients) was 3, the “stable disease, % of patients” value ([1]; 21 assessable patients) was 57% and the “stable disease, patients” value ([1]; 21 assessable patients) was 12. The “partial response, % of patients” value ([1]; 21 assessable patients, confirmed after ⩾4 weeks) was 14%, the “DLTs observed in the study” value ([2]; all cohorts, 22 patients, tosedostat with paclitaxel) was “only one DLT observed in 22 patients” and the DLT ([2]; cohort 5: tosedostat 180 mg combined with paclitaxel 175 mg m^−2, one patient, first 21 days) was “One DLT (grade 3 dyspnoea); also recorded: CTC grade 3 dyspnoea, with grade 2 fever and persistent grade 3 urinary tract infection”. The “grade 3/4 toxicity in dose-escalation phase” value ([2]; cohort 6: 175 mg m^−2 paclitaxel, 240 mg tosedostat, three patients) was “without any grade 3/4 toxicity”, the “MTD of tosedostat combined with paclitaxel” value ([2]; tosedostat 90–240 mg daily, paclitaxel 135–175 mg m^−2 every 3 weeks) was “No formal MTD was determined; also recorded: Formal MTD was never reached; also recorded: not reached” and the “combination with chemotherapeutic agents, antiproliferative effects” value (cancer cell lines) was “synergises”. For the same molecule, the selectivity (transformed cells) was “selectivity for transformed over nontransformed cells”, the “effect of paclitaxel coadministration on Cmax, tmax and t½” value ([3]; day 21 versus day 22) was “tendency for a decreased Cmax and an increased tmax and t½” and the “effect of paclitaxel coadministration on overall exposure (AUC0−t)” value ([3]; day 21 versus day 22) was “unaffected by paclitaxel administration; also recorded: unaffected by paclitaxel coadministration”. The AUC(0-t) [3, 5] was 1140 ng·h/mL, the AUC(0-t) [3, 6] was 1890 ng·h/mL and the Cmax [3, 5] was 522 ng/mL. For the same molecule, the Cmax [3, 6] was 969 ng/mL, the Tmax [3, 5] was 1.2 h and the Tmax [3, 6] was 1.2 h. The half-life [3, 5] was 1.2 h, the half-life [3, 6] was 1.3 h and the Vd/F [3, 5] was 179 L. It also gave a Vd/F [3, 6] of 72 L, an AUC(0-t) [3, 7] of 1920 ng·h/mL and a Cmax [3, 7] of 880 ng/mL. It also gave a Tmax [3, 7] of 1.7 h, a half-life [3, 7] of 1.1 h and a Vd/F [3, 7] of 112 L. For the same molecule, the AUC(0-t) [3, 8] was 2520 ng·h/mL, the Cmax [3, 8] was 1400 ng/mL and the Tmax [3, 8] was 1.7 h. The half-life [3, 8] was 1.1 h, the Vd/F [3, 8] was 123 L and the AUC(0-t) [3, 9] was 896 ng·h/mL. For the same molecule, the AUC(0-t) [3, 10] was 1410 ng·h/mL, the AUC(0-t) [3, 11] was 1400 ng·h/mL and the AUC(0-t) [3, 12] was 1710 ng·h/mL. The Cmax [3, 9] was 289 ng/mL, the Cmax [3, 10] was 527 ng/mL and the Cmax [3, 11] was 615 ng/mL. The Cmax [3, 12] was 399 ng/mL, the Tmax [3, 9] was 4 h and the Tmax [3, 10] was 2 h. It also gave a Tmax [3, 11] of 1.3 h, a Tmax [3, 12] of 4 h and a half-life [3, 9] of 2.4 h. For the same molecule, the half-life [3, 10] was 3.1 h, the half-life [3, 11] was 4 h and the half-life [3, 12] was 3.1 h. The Vd/F [3, 9] was 258 L, the Vd/F [3, 10] was 276 L and the Vd/F [3, 11] was 587 L. The Vd/F [3, 12] was 471 L, the “PK interaction between tosedostat and paclitaxel” value ([3]; in vivo) was “no PK interaction” and the “overall exposure versus dose” value ([3]; tosedostat 90–180 mg, plasma) was “increased in a dose proportional manner”. The effect on platelets ([4]; single agent dose escalation studies, ref Ossenkoppele et al, 2009, Reid et al) was “platelet suppressive effect”, the “most commonly reported AEs” value ([4]; single agent oral daily dosing, ref Reid et al, 2009) was “fatigue, thrombocytopenia, peripheral oedema and diarrhoea” and the “Dose-limiting toxicities, patients” value ([4]; single agent tosedostat 320 mg, ref Reid et al, 2009) was “two of four patients”. For the same molecule, the “MTD with single agent tosedostat” value ([4]; solid tumour patients treated for at least 28 days, oral daily, ref Reid et al, 2009) was 240 mg.

— PMC2990605 (British Journal of Cancer, 2010)
